The results in this text go back to patent US20090029992A1, “SUBSTITUTED PYRAZOLE COMPOUNDS” (priority 2007, published 2009).

The structures appear in SMILES notation. Bounds are passed on as bounds.

The assay deals with T1, Aurora B kinase (Homo sapiens, UniProt Q96GD4).
T1 construct: purchased BPS Biosciences, San Diego, Calif
T1 sequence (Q96GD4 whole entry): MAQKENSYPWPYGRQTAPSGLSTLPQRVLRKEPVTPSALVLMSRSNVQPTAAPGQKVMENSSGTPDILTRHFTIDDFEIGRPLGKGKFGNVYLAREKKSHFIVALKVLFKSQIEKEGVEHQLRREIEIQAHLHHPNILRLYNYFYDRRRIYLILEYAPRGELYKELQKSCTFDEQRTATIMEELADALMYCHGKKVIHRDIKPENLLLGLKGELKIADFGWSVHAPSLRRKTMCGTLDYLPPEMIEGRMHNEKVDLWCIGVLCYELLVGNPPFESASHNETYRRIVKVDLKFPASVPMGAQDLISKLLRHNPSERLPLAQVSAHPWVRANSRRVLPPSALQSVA
In words: Aurora B (Aurora 1) inhibition assay. The class given is biochemical. The settings on record: ATP 50 μM, 16 h. The method, then: Compounds were tested for their potency against recombinant Aurora A (Upstate, Lake Placid, N.Y.) using the PanVera Z′-Lyte kinase assay kit—Ser/Thr 1 peptide (Invitrogen, Carlsbad, Calif.). Assays were carried out in kinase assay buffer (50 mM HEPES, pH 7.5, 10 mM MgCl2, 5 mM EGTA, 0.05% Brij-35, 2 mM DTT). Test compounds were initially dissolved in DMSO at 100× the highest tested concentration, then serially diluted to 4× test concentrations in kinase assay buffer. Next, Aurora A (final concentration 200-500 ng/mL), Z′-Lyte Ser/Thr 1 peptide (final concentration 2 μM) and ATP (final concentration 10 μM) were added according to the manufacturer's instructions. Assays were carried out in half-area 96-well white polystyrene assay plates (Corning, Corning, N.Y.) in a final volume of 20 μl. The reaction was allowed to proceed for 1 h at room temperature in the dark, at which point the development reagent and stop reagent were added according to the manufacturer's instructions. Coumarin (Ex. 400 nm, Em. 465 nm) and fluorescein (Ex. 400 nm, Em. 565 nm) fluorescence values were measured on a SpectraFluor Plus plate reader (Tecan, Durham, N.C.). The emission ratio (coumarin/fluorescein) was determined and used to calculate the percent phosphorylation for each well. Wells containing substrate but no kinase and wells containing a phosphopeptide control were used to set 0% and 100% phosphorylation values, respectively. Typically 20-40% of the substrate was phosphorylated in wells without inhibitor. Dose-response curves of relative Aurora A activity vs. inhibitor concentration were plotted with Grafit (Erithacus Software, Horley, Surrey, UK).
Assays for Aurora B kinase inhibition were carried out similarly to those for Aurora A kinase (see above) with the following modifications. Aurora B kinase (BPS Biosciences, San Diego, Calif.) was used as the enzyme, at a concentration was 2.5 μg/mL. The ATP concentration was 50 μM, and the kinase reaction was allowed to proceed for 16 h. Sodium orthovanadate (20 μM) was added to the buffer to inhibit contaminating phosphatases.
By IC50 is commonly meant the concentration needed to halve the response being measured. Low values mean greater potency, high ones weaker potency. With `Cc1cc(Nc2cc(NC3CCOCC3)nc(-c3ccc4c(c3)OCCO4)n2)n[nH]1` [Example 130, 2-(2,3-dihydrobenzo[b][1,4]dioxin-6-yl)-N^4-(5-methyl-1H-pyrazol-3-yl)-N^6-(tetrahydro-2H-pyran-4-yl)pyrimidine-4,6-diamine], the IC50 is at most 1 µM.
Take `CCOc1cccc(-c2nc(Nc3cc(C)[nH]n3)cc(N3CCN(C)CC3)n2)c1` [Example 190, 2-(3-ethoxyphenyl)-N-(5-methyl-1H-pyrazol-3-yl)-6-(4-methylpiperazin-1-yl)pyrimidin-4-amine]: the IC50 is at most 1 µM.
As to `CC(=O)c1cccc(-c2nc(Nc3cc(C)[nH]n3)cc(N3CCN(C)CC3)n2)c1` [Example 165, 1-(3-(4-(5-methyl-1H-pyrazol-3-ylamino)-6-(4-methylpiperazin-1-yl)pyrimidin-2-yl)phenyl)ethanone], the IC50 is at most 1 µM.
To `Cc1cc(Nc2cc(N3CCN(C)CC3)nc(-c3ccc4c(c3)OCCO4)n2)n[nH]1` [Example 137, 2-(2,3-dihydrobenzo[b][1,4]dioxin-6-yl)-N-(5-methyl-1H-pyrazol-3-yl)-6-(4-methylpiperazin-1-yl)pyrimidin-4-amine] belongs at most 1 µM.
As to `COc1cc(OC)cc(-c2nc(Nc3cc(C)[nH]n3)cc(N3CCN(C)CC3)n2)c1` [Example 191, 2-(3,5-dimethoxyphenyl)-N-(5-methyl-1H-pyrazol-3-yl)-6-(4-methylpiperazin-1-yl)pyrimidin-4-amine], the IC50 is at most 1 µM.
Regarding `Cc1cc(Nc2cc(NC3CCOCC3)nc(-c3cc4ccccc4o3)n2)n[nH]1` [Compound 15, 2-(benzofuran-2-yl)-N^4-(tetrahydro-2H-pyran-4-yl)-N^6-(5-methyl-1H-pyrazol-3-yl)-pyrimidine-4,6-diamine], the IC50 is at most 1 µM.
For `Cc1cc(Nc2cc(NC3CCOCC3)nc(-c3cccc(N(C)C)c3)n2)n[nH]1` [Compound 74, 2-(3-(dimethylamino)phenyl)-N^4-(5-methyl-1H-pyrazol-3-yl)-N^6-(tetrahydro-2H-pyran-4-yl)pyrimidine-4,6-diamine] the value was at most 1 µM; for `Cc1cc(Nc2cc(N3CCN(C)CC3)nc(-c3cccc(-c4ccccc4)c3)n2)n[nH]1` [Compound 16, 2-(biphenyl-3-yl)-N-(5-methyl-1H-pyrazol-3-yl)-6-(4-methylpiperazin-1-yl)pyrimidin-4-amine], at most 1 µM; for `Cc1cc(Nc2cc(N3CCN(C)CC3)nc(-c3ccc4c(c3)OCO4)n2)n[nH]1` [Example 139, 2-(benzo[d][1,3]dioxol-5-yl)-N-(5-methyl-1H-pyrazol-3-yl)-6-(4-methylpiperazin-1-yl)pyrimidin-4-amine], at most 1 µM.
To `Cc1cc(Nc2cc(N3CCN(C)CC3)nc(-c3cccc(C#N)c3)n2)n[nH]1` [Example 163, 3-(4-(5-methyl-1H-pyrazol-3-ylamino)-6-(4-methylpiperazin-1-yl)pyrimidin-2-yl)benzonitrile] belongs at most 1 µM; to `Cc1cc(Nc2cc(N3CCN(C)CC3)nc(-c3cc(F)cc(F)c3)n2)n[nH]1` [Example 170, 2-(3,5-difluorophenyl)-N-(5-methyl-1H-pyrazol-3-yl)-6-(4-methylpiperazin-1-yl)pyrimidin-4-amine], at most 1 µM; to `Cc1cc(Nc2cc(N3CCN(C)CC3)nc(-c3cccc([N+](=O)[O-])c3)n2)n[nH]1` [Example 162, N-(5-methyl-1H-pyrazol-3-yl)-6-(4-methylpiperazin-1-yl)-2-(3-nitrophenyl)pyrimidin-4-amine], at most 1 µM.
In turn, `Cc1cc(Nc2cc(NC3CCOCC3)nc(-c3cccc(F)c3)n2)n[nH]1` [Compound 20, 2-(3-fluorophenyl)-N^4-(5-methyl-1H-pyrazol-3-yl)-N^6-(tetrahydro-2H-pyran-4-yl)pyrimidine-4,6-diamine] yielded an IC50 of at most 1 µM.
Consider `COc1cccc(-c2nc(Nc3cc(C)[nH]n3)cc(N3CCN(C)CC3)n2)c1` [Compound 42, 2-(3-methoxyphenyl)-N-(5-methyl-1H-pyrazol-3-yl)-6-(4-methylpiperazin-1-yl)pyrimidin-4-amine], for which the IC50 was at most 1 µM.
Turning to `Cc1cc(Nc2cc(N3CCN(C)CC3)nc(-c3cccc(F)c3)n2)n[nH]1` [Compound 33, 2-(3-fluorophenyl)-N-(5-methyl-1H-pyrazol-3-yl)-6-(4-methylpiperazin-1-yl)pyrimidin-4-amine], the IC50 was at most 1 µM.
`COC(=O)c1cccc(-c2nc(Nc3cc(C)[nH]n3)cc(N3CCN(C)CC3)n2)c1` [Example 166, methyl 3-(4-(5-methyl-1H-pyrazol-3-ylamino)-6-(4-methylpiperazin-1-yl)pyrimidin-2-yl)benzoate] came in with an IC50 of at most 1 µM.
`Cc1cc(Nc2cc(N3CCN(C)CC3)nc(-c3ccccc3)n2)n[nH]1` [Compound 8, N-(5-methyl-1H-pyrazol-3-yl)-6-(4-methylpiperazin-1-yl)-2-phenyl pyrimidin-4-amine]: the IC50 is at most 1 µM.
For the compound `Cc1cc(Nc2cc(N3CCN(C)CC3)nc(-c3cccc(Cl)c3)n2)n[nH]1` [Compound 36, 2-(3-chlorophenyl)-N-(5-methyl-1H-pyrazol-3-yl)-6-(4-methylpiperazin-1-yl)pyrimidin-4-amine], the IC50 is at most 1 µM.
